{
  "source": "patent EP2478902A1",
  "about": "“PHARMACEUTICAL COMPOSITION FOR REDUCING WEIGHT AND METHOD FOR THE PRODUCTION THEREOF” (World-Trade Import-Export Wtie, AG, priority 2009, dated 2011)",
  "key": {"[1]": {"settings": "3,000 mg/day of L-Carnitine, 10 weeks, calorie restriction, increased physical activity; cited from earlier work"}, "[2]": {"assay": "Comparative, open-label, controlled clinical trial of Orlistat/L-Carnitine (OL-CA) vs Orlistat (OL) and L-Carnitine (CA) in adults with overweight above 10 %", "type": "in vivo, human", "settings": "end of treatment (12 weeks), n = 20 per group; for subjects who reached a normal weight: one capsule a day", "experimental": "A randomised, parallel, cross-over, prospective, open-label clinical trial.\nMale and/or female subjects aged above 18 years, with overweight above 10 % their ideal weight.\n• Group 1. Orlistat (OL) 120 mg, one capsule a day for 12 weeks. • Group 2. L-Carnitine (CA) 600 mg, one capsule a day for 12 weeks. • Group 3. Orlistat 120 mg and L-Carnitine 600 mg (OL-CA) in one capsule a day for 12 weeks.\n• No other drug therapy was permitted for obesity and overweigh using any administration route during the clinical trial.\n• Three treatment groups with random distribution 1:!;1\n• Male and/or female subjects over 18 years of age. • Overweight above 10 % of their ideal weight or a Body Mass Index (BMI) of 28 kg/m2 or higher. • Poor response to previous diet therapy. • No participation in a clinical trial with a test drug or device for 30 days before the planned start of treatment. • Patients with or without risk factors associated with obesity (type 2 diabetes and systemic hypertension). • Following a nutritionally balanced and moderately hypocaloric plan containing about 30 % of calories from fat. • Women with child-bearing potential should use some contraceptive method during the treatment.\n• Under 18 years of age • History of hypersensitivity to the components of the formula • Patients with any organ failure • Patients with a history of intolerance to lactose • Patients with a history of bowel malabsorption syndrome and cholestasis • Patients with suspected or diagnosed pancreatic disorder • Pregnant and/or nursing women • Diagnosed or suspected thyroid disorder • Patients currently on anticoagulants or cyclosporine and amiodarone.\nRandomisation in to the study was stratified at a 1:1:1 ratio. The subjects were classified according to their body mass index. • Group A, 20 subjects with overweight, BMI of 25 to 29.9 kg/m2 • Group B, 20 subjects with grade 2 obesity, BMI of 30-39 kg/m2 • Group C, 20 subjects with grade 3 obesity BMI above 40 kg/m2 With regard to the BMI, the following values and interpretation are given • BMI 20 to 25 kg/m^2 = normal weight • BMI 25 to 29.9 kg/m^2 = Overweight • BMI 30 to 39 kg/m^2 - Grade 2 obesity • BMI above 40 kg/m^2 = Grade 3 obesity"}, "[3]": {"settings": "15 mg/kg/day of L-Carnitine, 26 weeks, cited from earlier work"}, "[4]": {"settings": "2,000 mg/day of L-Carnitine, 26 weeks, diet of 1,400 to 1,600 Kcal/day; cited from earlier work"}},
  "data": [
    {"smiles": "C[N+](C)(C)C[C@H](O)CC(=O)[O-]", "note": "[CA, L-Carnitine]", "values": [
      {"measurement": "weight loss between the two groups", "setting": "[1]", "value": "No significant weight loss"},
      {"measurement": "patients reaching grade 2 obesity", "setting": "[2]", "value": 75, "unit": "%"},
      {"measurement": "patients reaching grade 2 obesity (number)", "setting": "[2]", "value": 15, "unit": "subjects"},
      {"measurement": "subjects who documented overweight", "setting": "[2]", "value": 15, "unit": "%"},
      {"measurement": "subjects who documented overweight (number)", "setting": "[2]", "value": 3, "unit": "subjects"},
      {"measurement": "subjects who reached a normal weight (number)", "setting": "[2]", "value": "one"},
      {"measurement": "subjects with grade 3 obesity", "setting": "[2]", "value": 5, "unit": "%"},
      {"measurement": "subjects with grade 3 obesity (number)", "setting": "[2]", "value": 1, "unit": "subjects"},
      {"measurement": "subjects who reached a normal weight", "setting": "[2]", "value": 5, "unit": "%"},
      {"measurement": "weight loss in the treatment group", "setting": "[3]; restriction of 1,500 Kcal in diet, 60 subjects with obesity", "value": 1.9, "unit": "kg"},
      {"measurement": "weight loss (significance)", "setting": "[3]", "value": "not significant"},
      {"measurement": "weight loss or differences between the groups at the end of the study", "setting": "[4]", "value": "No significant weight loss or differences between the groups"}
    ]},
    {"smiles": "CCCCCCCCCCC[C@@H](C[C@@H]1OC(=O)[C@H]1CCCCCC)OC(=O)[C@H](CC(C)C)NC=O", "note": "[OL]", "values": [
      {"measurement": "patients reaching grade 2 obesity", "setting": "[2]", "value": 65, "unit": "%"},
      {"measurement": "patients reaching grade 2 obesity (number)", "setting": "[2]", "value": 13, "unit": "subjects"},
      {"measurement": "subjects who documented overweight", "setting": "[2]", "value": 10, "unit": "%"},
      {"measurement": "subjects who documented overweight (number)", "setting": "[2]", "value": 2, "unit": "subjects"},
      {"measurement": "subjects who reached a normal weight (number)", "setting": "[2]", "value": "one"},
      {"measurement": "subjects with grade 3 obesity", "setting": "[2]", "value": 20, "unit": "%"},
      {"measurement": "subjects with grade 3 obesity (number)", "setting": "[2]", "value": 4, "unit": "subjects"},
      {"measurement": "subjects who reached a normal weight", "setting": "[2]", "value": 5, "unit": "%"}
    ]}
  ]
}
